Series [1] addresses T1, hAChE (Homo sapiens, UniProt P22303).
T1 construct: purchased Sigma Aldrich
Put plainly: biochemical. The note with it: for inhibition at 10 µM: read-out: % inhibition at 10 μM hAChE. The text has this:
(§1) Readings were made with Infinite M1000 Pro plate reader (Tecan, Cernusco s.N., Italy) and statistical regressions with Prism software (GraphPad Prism version 5.00 for Windows, GraphPad Software, San Diego, CA, USA).

Series [2] concerns the target T2, hMAO A (Homo sapiens, UniProt P21397).
T2 construct: purchased Sigma Aldrich
T2 sequence (P21397 1-527): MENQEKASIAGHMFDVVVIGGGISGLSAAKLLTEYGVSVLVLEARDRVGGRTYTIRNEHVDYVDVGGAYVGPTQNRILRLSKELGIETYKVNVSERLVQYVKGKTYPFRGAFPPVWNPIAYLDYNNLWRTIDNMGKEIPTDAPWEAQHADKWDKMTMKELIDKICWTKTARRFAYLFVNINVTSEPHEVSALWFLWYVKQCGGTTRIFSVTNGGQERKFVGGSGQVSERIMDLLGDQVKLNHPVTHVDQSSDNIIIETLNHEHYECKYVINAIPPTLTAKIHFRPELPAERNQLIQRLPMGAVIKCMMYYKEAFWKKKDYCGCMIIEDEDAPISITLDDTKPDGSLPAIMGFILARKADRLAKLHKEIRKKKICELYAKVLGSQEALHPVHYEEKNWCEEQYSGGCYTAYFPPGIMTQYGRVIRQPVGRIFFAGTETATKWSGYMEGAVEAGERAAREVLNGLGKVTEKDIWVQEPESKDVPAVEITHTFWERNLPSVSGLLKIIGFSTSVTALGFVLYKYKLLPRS
Briefly: biochemical. The note with it: for inhibition at 10 µM: read-out: % inhibition at 10 μM hMAO A.
Source text: as §1

The nature of series [3]: RP-HPLC lipophilicity index log k’. Type of series: physicochemical. Particulars: MeOH/phosphate buffer pH 7.4; methanol/PBS 60:40 v/v. The text has this:
To investigate a possible correlation between MAO inhibitory potency and lipophilicity,[7] we calculated log P with three different programs (ChemDraw 15.0; ALOG PS 2.1; ChemSketch 2017, see Table S1 in Supporting Information) and compared the calculated values with experimental lipophilicity indexes as assessed by reversed‐phase (RP) HPLC in isocratic conditions for the majority of compounds. The log of capacity factors (log k’) measured by RP‐HPLC using a mixture of methanol/PBS (60 : 40, v/v) as the mobile phase are reported in Tables 1 and 2, along with Clog P values calculated with ChemDraw. These calculated lipophilicity descriptors correlated with the experimental log k’ values (n=13, r ^2=0.901) better than the other log Ps calculated by ALOG PS and ChemSketch computational tools (r ^2 equal 0.705 and 0.568, respectively). As shown by the scatter plots in Figure 4 and Figure S1 in Supporting Information, there is no evident correlation trend between MAO A/B inhibition data and lipophilicity calculated by the expert system implemented in ChemDraw for compounds achieving finite IC50 values.
Log k’ values (k’=(tr‐t0)/t0) and purity determinations were carried out using a Phenomenex Gemini C18 4.6×150 mm, with 3 μm size particles, built on a Waters double pump HPLC system in isocratic conditions. Injection volumes were 10 μL, flow rate was 0.5 mL/min, and detection was performed with UV (λ=254 and 370 nm). Samples were prepared by dissolving 0.1 mg/mL of the solute in 10 % v/v DMSO and 90 % v/v methanol. Retention times (tr) were measured at least from three separate injections, and dead time (t0) was the retention time of deuterated methanol. The mobile phase was filtered through a Supelco Nylon‐66 membrane 0.45 μm (Merck Life Science Srl, Milan, Italy) before use. For each reference compound, the average tr of three consecutive injections of 10 μL of sample was used to calculate the log k’ values. The eluent consisted of five different mixtures of methanol and PBS buffer 10 mM at pH 7.4, with methanol/buffer ratios ranging from 80 : 20 to 60 : 40 v/v.

The target of series [4] is T3, hMAO B (Homo sapiens, UniProt P27338).
T3 construct: purchased Sigma Aldrich
T3 sequence (P27338 1-520): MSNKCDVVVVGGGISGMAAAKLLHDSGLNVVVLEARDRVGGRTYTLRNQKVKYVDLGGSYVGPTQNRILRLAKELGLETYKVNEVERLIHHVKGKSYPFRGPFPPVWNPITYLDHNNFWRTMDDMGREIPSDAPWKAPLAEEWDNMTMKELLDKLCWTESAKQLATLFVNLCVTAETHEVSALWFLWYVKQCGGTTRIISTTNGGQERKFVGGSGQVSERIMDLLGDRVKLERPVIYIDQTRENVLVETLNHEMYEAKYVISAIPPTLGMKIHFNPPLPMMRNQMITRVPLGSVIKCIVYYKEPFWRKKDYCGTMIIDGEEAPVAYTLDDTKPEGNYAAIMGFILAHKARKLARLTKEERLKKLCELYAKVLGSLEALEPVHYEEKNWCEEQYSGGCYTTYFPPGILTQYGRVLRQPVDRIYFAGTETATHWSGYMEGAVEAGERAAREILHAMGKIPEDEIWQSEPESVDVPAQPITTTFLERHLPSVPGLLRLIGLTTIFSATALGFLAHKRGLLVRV
Put plainly: biochemical. Type of series: biochemical. Particulars: for inhibition at 10 µM: read-out: % inhibition at 10 μM hMAO B.

The nature of series [5]: Hydrolytic stability in buffered solution (PBS pH 7.4, 37 °C). The class given is physicochemical. The note with it: 20 μM in 10 mM PBS pH 7.4, 37 °C, 6 h incubation. Here is the method:
The hydrolytic stability of some representative imino/hydrazone/hydrazide derivatives was determined in buffered aqueous media. […]. […]. The hydrolytic degradation of 9 in its starting reagents was confirmed by the comparison of the chromatograms of 9 and 2‐chloro‐4‐hydroxyaniline, obtained in the same chromatographic conditions (Figure 6B).
Stability studies in buffered solution were performed following an already described procedure,[23] on a Phenomenex C18 column (150×4.6 mm i.d., 3 μm particle size; Phenomenex, Castel Maggiore, Italy) using a mobile phase consisting of a mixture of methanol‐water (75 : 25 v/v, with aqueous formic acid 0.1 %). The used flow rate was 0.500 mL/min while the injection volume was 20 μL. Wavelength of UV‐Vis detector was adjusted at 254 nm. The chemical stability was evaluated in a phosphate buffer solution pH 7.4 (10 mM HPO4 ^2−/H2PO4 ^−; 100 mM NaCl) at 37 °C. Five different concentrations from 0.5 μM to 20 μM were studied in a 2 h time range (data not shown). Each concentration (0.5, 1, 5, 10 and 20 μM) was tested in triplicate starting from 3 different stocks solution (1 mM) prepared separately. The time range was extended to 6 h only for the samples at 20 μM concentration (Figure 6a).

T1 sequence (P22303 32-614): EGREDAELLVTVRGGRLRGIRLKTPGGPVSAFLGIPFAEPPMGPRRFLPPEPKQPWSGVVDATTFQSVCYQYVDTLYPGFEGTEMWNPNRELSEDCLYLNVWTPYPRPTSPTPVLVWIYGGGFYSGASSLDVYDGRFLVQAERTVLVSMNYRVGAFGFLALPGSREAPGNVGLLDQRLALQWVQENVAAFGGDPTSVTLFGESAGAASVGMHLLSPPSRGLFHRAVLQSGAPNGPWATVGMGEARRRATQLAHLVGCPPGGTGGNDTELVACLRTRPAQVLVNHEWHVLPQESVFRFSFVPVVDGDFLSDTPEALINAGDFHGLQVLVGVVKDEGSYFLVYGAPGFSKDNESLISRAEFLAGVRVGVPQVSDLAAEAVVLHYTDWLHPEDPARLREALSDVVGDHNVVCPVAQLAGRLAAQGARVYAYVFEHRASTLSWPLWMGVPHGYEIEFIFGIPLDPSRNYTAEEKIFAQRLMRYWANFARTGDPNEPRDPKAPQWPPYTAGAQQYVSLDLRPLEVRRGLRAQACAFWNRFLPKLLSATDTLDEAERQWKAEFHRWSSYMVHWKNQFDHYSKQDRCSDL

On to `O=C(N/N=C/c1ccc(-c2ccc([N+](=O)[O-])cc2)o1)c1ccncc1` [Compound 2], for which the inhibition (commonly the share of the control response that was lost under treatment) at 10 µM in series [1] amounted to 30%. The results for the IC50 in series [2] and in series [4] were 7.89 ± 1.1 µM and 3.56 ± 0.36 µM, respectively. In addition, the “log k’ (logarithm of capacity factor, RP-HPLC)” value (from here on “log k’”) in series [3] is 0.522.

As for `CC(=O)NN=Cc1ccc(-c2ccc(C#N)cc2)o1` [Compound 6, N ′‐((5‐(4‐cyanophenyl)furan‐2‐yl)methylene)acetohydrazide], the inhibition at 10 µM in series [1] was found to be 38%. Besides, the concentration for half-maximal inhibition (IC50) (commonly the point on the concentration scale where inhibition reaches its midpoint) in series [2] turned out to be 4.25 ± 0.45 µM; in series [4] it was 2.65 ± 0.11 µM. In series [3], the “log k’” value is recorded as 0.236.

For `CN1CCN(N=Cc2ccco2)CC1` [Compound 16, 1‐(Furan‐2‐yl)‐N‐(4‐methylpiperazin‐1‐yl)methanimine], the inhibition at 10 µM worked out at 21% in series [1], 18% in series [2] and 13% in series [4].

With `CS(=O)(=O)c1ccc(NN=Cc2ccc(-c3ccc(C#N)cc3)o2)cc1` [Compound 11, 4‐(5‐((2‐(4‐(methylsulfonyl)phenyl)hydrazono)methyl)furan‐2‐yl)benzonitrile], the inhibition at 10 µM in series [1] turned out to be 39%; in series [2] it was 11%; in series [4] it was 28%.

On to `N#Cc1ccc(-c2ccc(/C=N/NC(=O)c3ccncc3)o2)cc1` [Compound 5, N ′‐((5‐(4‐cyanophenyl)furan‐yl)methylene)isonicotinohydrazide], for which the inhibition at 10 µM in series [1] amounted to 27%. Further, the IC50 came out at 6.62 ± 0.71 µM in series [2] and 12.6 ± 0.9 µM in series [4]. In series [3], the “log k’” value is recorded as 0.312.

As for `COc1cccc(C=NNc2ccc(S(N)(=O)=O)cc2)c1` [Compound 20, 4‐(2‐((3‐methoxyphenyl)methylidene)hydrazinyl)benzene‐1‐sulfonamide], the IC50 is 10.2 ± 1.6 µM in series [1] and 0.81 ± 0.04 µM in series [4]. In addition, in series [2], the inhibition at 10 µM came to 42%. In addition, the “log k’” value in series [3] is 0.307.

Take `N#Cc1ccc(-c2ccc(/C=N/Nc3ccc(S(N)(=O)=O)cc3)o2)cc1` [Compound 12]: the IC50 in series [1] worked out at 1.67 ± 0.19 µM; in series [2], 10 ± 1.9 µM. Further, the “log k’” value in series [3] is reported as 0.466. Also, in series [4], the inhibition at 10 µM is 28%.

`COc1cccc(/C=N/NC(=O)c2ccncc2)c1` [Compound 19]: the IC50 in series [1] was found to be 11.2 ± 1.6 µM; in series [4] it was 12.2 ± 1.5 µM. Also, the inhibition at 10 µM in series [2] was 19%. Also, in series [3], the “log k’” value was found to be 0.129.

Molecule `O=C1CN(/N=C/c2ccco2)C(=O)N1` [Compound 14] registered an IC50 in series [1] of 9.06 ± 0.45 µM. In series [2], the inhibition at 10 µM stood at 11%. In series [3], the “log k’” value is listed as −1.018. Further, in series [4] (10 μM), the “% inhibition at 10 μM hMAO B” value is on record as “no inhibition”.

Regarding `COc1ccc(N/N=C/c2ccc(-c3ccc(C#N)cc3)o2)cc1` [Compound 10], the inhibition at 10 µM was found to be 47% in series [2] and 29% in series [4].

For `COc1cc(C=NNC(=O)c2cccs2)ccc1-c1ccc(C#N)cc1` [Compound 13, N ′‐[(4′‐cyano‐2‐methoxy[1,1′‐biphenyl]‐4‐yl)methylidene]thiophene‐2‐carbohydrazide], the figures for the inhibition at 10 µM in series [1] and in series [2] were 35% and 29%, respectively. Further, the “log k’” value in series [3] is on record as 0.549. Moreover, half-maximal inhibition in series [4] (IC50) was put at 2.32 ± 0.43 µM.

As to `NS(=O)(=O)c1ccc(NN=Cc2ccco2)cc1` [Compound 18, 4‐(‐2‐((furan‐2‐yl)methylidene)hydrazinyl)benzene‐1‐sulfonamide], the inhibition at 10 µM in series [1] was 27%; in series [2] it was 25%; in series [4] it was 21%.

Take `O=C(N/N=C/c1ccco1)c1cccs1` [Compound 15]: the 50% inhibitory concentration (IC50) in series [1] turned out to be 7.18 ± 0.07 µM. Further, the inhibition at 10 µM in series [2] is 16%; in series [4] it was 13%. For the same molecule, in series [3], the “log k’” value is given as −0.010.

With `O=C(Cc1ccccc1)NN=Cc1ccco1` [Compound 17, N ′‐((furan‐2‐yl)methylidene)‐2‐phenylacetohydrazide], the inhibition at 10 µM in series [1] was determined as 52%; in series [2], 22%; in series [4], 22%.

Consider `N#Cc1ccc(-c2ccc(C=NNC(=O)Cc3ccccc3)o2)cc1` [Compound 8, N ′‐((5‐(4‐cyanophenyl)furan‐2‐yl)methylene)‐2‐phenyl‐acetohydrazide], for which the inhibition at 10 µM in series [1] was determined as 16%. The IC50 in series [2] worked out at 5.51 ± 0.54 µM; in series [4], 3.61 ± 0.04 µM. Further, the “log k’” value in series [3] is 0.803.

As to `O=C(NN=Cc1ccc(-c2ccc([N+](=O)[O-])cc2)o1)c1cccs1` [Compound 1, N ′‐((5‐(4‐nitrophenyl)furan‐2‐yl)methylene)thiophene‐2‐carbohydrazide], the figures for the inhibition at 10 µM in series [1] and in series [2] were 40% and 33%, respectively. The “log k’” value in series [3] was found to be 0.947. The molecule further showed an IC50 in series [4] of 3.67 ± 0.92 µM.

For `N#Cc1ccc(-c2ccc(C=NNC(=O)c3cccs3)o2)cc1` [Compound 4, N ′‐((5‐(4‐cyanophenyl)furan‐2‐yl)methylene)thiophene‐2‐carbohydrazide], in series [1], the inhibition at 10 µM worked out at 51%. Moreover, the figures for the IC50 in series [2] and in series [4] were 1.46 ± 0.21 µM and 2.63 ± 0.42 µM, respectively. Besides, the “hydrolytic stability” value in series [5] is “substantial stability”.

As for `COc1cc(C=NN2CC(=O)NC2=O)cc(OC)c1OC` [Compound 21, 1‐(((3,4,5‐trimethoxyphenyl)methylidene)amino)imidazolidine‐2,4‐dione], the figures for the inhibition at 10 µM in series [1], in series [2] and in series [4] were 28%, 8% and 18%, respectively.

Turning to `N#Cc1ccc(-c2ccc(/C=N/N3CC(=O)NC3=O)o2)cc1` [Compound 7], the inhibition at 10 µM in series [1] worked out at 28%; in series [2], 40%; in series [4] it was 50%.

These data come from PMC8518391, “Synthesis and Biological Evaluation of Dantrolene‐Like Hydrazide and Hydrazone Analogues as Multitarget Agents for Neurodegenerative Diseases” (Chemmedchem, 2021).
